Laboratory results taken from US9051326B2, “Pyrazoline derivatives and their use as selective androgen receptor modulators” (NOVARTIS AG, priority 2011, dated 2015).
Like-named read-outs stand apart in the source and are kept apart here.

Legend:
[1] = tested on: orchidectomized male Wistar rats; assay: In vivo modified Hershberger assay (Test 2); design: species or system rat; settings: for luteinizing hormone (LH) levels / weights of levator ani compared to prostate: 14 days treatment; for luteinizing hormone (LH) levels: in comparison to ORX animals; for plasma drug concentration: day 15, 3 hours after last dose; for weights of levator ani compared to prostate: orchidectomized male rats
Protocol: The test article Testosterone Propionate is dissolved using 10% ethanol, 90% corn oil. Ostarine is suspended in 1% CMC, 0.1% Tween-80, water. Compounds of examples 1 and 5 are dissolved in 50% PEG 200 and 50% of saline. Ostarine is administered orally at 1 ml/kg volume. Testosterone Propionate, Compounds of examples 1 and 5 are administered subcutaneously to 14 days prior orchidectomized male rats at 1 ml per kg body weight for a period of 14 days. Each group of 6 rats receives dosages of 0.01, 0.1, 1 and 10 mg/kg. 6 animals each serves as sham control and ORX control and are administered vehicle at 1 ml/kg.
Testosterone Propionate is subcutaneously administered at doses of 0.03, 0.1, 0.3, 1.3 and 10 mg/kg. Ostarine is given orally at doses of 0.001, 0.003, 0.01, 0.03, 0.1, 0.3, 1.3 and 10 mg/kg.
The various investigations like mortality, clinical signs, body weight, food consumption, drug concentration analysis (day 15), clinical pathology and gross pathology parameters are performed on all groups.
Evaluation of Testosterone Propionate, Ostarine, examples 1 and 5 in modified Hershberger assay in male wistar rats was conducted at the Department of Preclinical Biology, Aurigene Discovery Technologies Ltd., Bangalore, India.

androgen receptor (AR) = target: T1, androgen receptor (AR) (Homo sapiens, UniProt P10275); assay: AR transcriptional activation luciferase reporter assay in C2C12 cells (Test 1); assay type: cell-based; settings: for % Biological activity (C2C12 cell) 100 nM: 100 nM compound; for % Biological activity (C2C12 cell) 100 nM / % Biological activity (C2C12 cell) 5 μM: activity relative to 1 μM DHT; for % Biological activity (C2C12 cell) 5 μM: 5 μM compound
T1 construct: transfecting C2C12 cells with a plasmid containing full-length AR along with an AR response element linked to luciferase; expressed in transfected cells; host or cells: mouse myoblastic C2C12 cells (ATCC CRL-1772), transient transfection with Lipofectamine 2000
T1 sequence (P10275 1-920): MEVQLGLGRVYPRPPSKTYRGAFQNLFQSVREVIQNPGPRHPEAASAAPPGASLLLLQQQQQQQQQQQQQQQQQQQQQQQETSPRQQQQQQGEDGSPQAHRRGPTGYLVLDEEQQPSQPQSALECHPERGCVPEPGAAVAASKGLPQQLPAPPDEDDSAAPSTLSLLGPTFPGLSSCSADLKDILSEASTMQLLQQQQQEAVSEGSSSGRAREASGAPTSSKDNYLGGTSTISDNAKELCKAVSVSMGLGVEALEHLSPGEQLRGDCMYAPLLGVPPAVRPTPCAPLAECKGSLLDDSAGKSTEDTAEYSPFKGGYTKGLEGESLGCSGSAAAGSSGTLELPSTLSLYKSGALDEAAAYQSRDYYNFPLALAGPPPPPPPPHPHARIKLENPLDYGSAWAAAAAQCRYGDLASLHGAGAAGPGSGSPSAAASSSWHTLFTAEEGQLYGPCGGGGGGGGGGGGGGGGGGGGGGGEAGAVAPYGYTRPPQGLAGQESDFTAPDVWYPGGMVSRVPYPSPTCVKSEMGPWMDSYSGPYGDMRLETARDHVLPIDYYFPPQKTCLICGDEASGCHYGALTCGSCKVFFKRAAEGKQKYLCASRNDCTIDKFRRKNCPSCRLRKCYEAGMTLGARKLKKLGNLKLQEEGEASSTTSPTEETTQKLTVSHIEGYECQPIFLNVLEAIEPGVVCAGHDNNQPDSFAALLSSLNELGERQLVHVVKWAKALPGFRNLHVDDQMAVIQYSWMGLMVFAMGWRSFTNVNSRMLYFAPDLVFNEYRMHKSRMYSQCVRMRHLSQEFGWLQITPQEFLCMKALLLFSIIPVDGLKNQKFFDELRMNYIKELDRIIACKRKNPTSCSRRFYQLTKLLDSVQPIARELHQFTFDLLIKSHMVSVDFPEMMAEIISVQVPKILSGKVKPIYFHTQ
Protocol: A suitable assay to determine the ability of a ligand to transcriptionally activate androgen receptor (AR) is carried out using mouse myoblastic C2C12 cells. The assay involves transfecting C2C12 cells with a plasmid containing full-length AR along with an AR response element linked to luciferase (2XIDR17). The luminescence read-out at the end of the assay is measured using Victor 3 and is a direct measure of the transcriptional activity. The assay has been validated using the reference compound, BMS-564929, for which EC50 values have been reported in a similar set-up. Other tool compounds that have been used for assay validation are GSK-420A, Andarine, putative Ostarine, and LGD-2226.
C2C12 cells were obtained from ATCC (Cat # CRL-1772) and maintained in DMEM modified to contain 4 mM L-glutamine, 4.5 g/L glucose, 1 mM sodium pyruvate and 1.5 g/L sodium bicarbonate and 10% FBS.
AR-FL in pcDNA 3.1(+) and 2XIDR17 in pGL4.26 plasmids prepared using Genelute plasmid miniprep kit from Sigma Cat # PLED35
• C2C12 cells were seeded in a 96-well plate in DMEM (Dulbecco's Modified Eagle Medium) without phenol red and containing 10% CS-FBS (Charcoal-stripped Fetal Bovine Serum) at 8000 cells/well. • The next day, cells were transfected with an equimolar ratio of (Androgen Receptor-Full length) AR-FL and 2XIDR17-Luciferase at a total plasmid concentration of 200 ng/well using Lipofectamine 2000 following manufacturer's protocol. • For the transfection, 83 ng of AR-FL and 117 ng of 2XIDR17-Luciferase were in 12.5 μl of OptiMEM—Mix A. 0.4 μl of Lipofectamine 2000 was added to 12.5 μl of OptiMEM and incubated for 5 min at room temperature—Mix B. The two mixes A and B were mixed and incubated at room temperature for an additional fifteen minutes. An additional 50 μl of OptiMEM was added, gently mixed and this mixture was added to the cells in the 96-well plate. The above quantities are requirements per well of a 96-well plate. Master mixes were made for the entire plate, with proportional quantity of reagents being used. • 5 h after transfection, compounds were added to the wells in DMEM without phenol red and containing 10% CS-FBS, maintaining a final DMSO concentration of 0.5%. A typical dose response curve starts at 10 μM and includes a 7-point, log dilution, done in triplicates. • After overnight incubation with the compounds, 100 ul of working solution of Steadyglow reagent was added to the wells. • The plates were placed in a shaker for 15 min at the end of which the lysate containing luciferase was transferred to a white flat-bottom plate and read under a luminescence setting in Victor. • Background subtracted counts (Luminescence from DMSO control wells is considered the background) are used to calculate percentage activity, expressed relative to activity with 1 μM (Dihydrotestosterone) DHT (at least two sets of triplicates for 1 μM DHT are included per plate). Data Fitting: • The EC50 curves for the compounds for 8 compound concentrations were fitted by the respective function using non-linear least-squares regression in Graphpad Prism 4.0 (Graphpad Software, San Diego, Calif., USA).

## C[C@](O)(COc1ccc(C#N)cc1)C(=O)Nc1ccc(C#N)c(C(F)(F)F)c1 [Ostarine, reference compound]
[1]
  luteinizing hormone (LH) levels: concurrent decrease of LH levels
  plasma drug concentration: dose dependent increase
  weights of levator ani compared to prostate: dose dependent selective increase in weights of levator ani compared to prostate

## CCC(=O)O[C@H]1CC[C@H]2[C@@H]3CCC4=CC(=O)CC[C@]4(C)[C@H]3CC[C@]12C [Testosterone Propionate, reference compound]
[1]
  weights of levator ani compared to prostate: did not show any selectivity on levator ani versus prostate

## CCO[C@@H]1C(c2ccc(C#N)c(Cl)c2C)=NN2CC[C@H](O)[C@@H]12 [Example 5, 2-chloro-4-((3S,3aS,4S)-3-ethoxy-4-hydroxy-3a,4,5,6-tetrahydro-3H-pyrrolo[1,2-b]pyrazol-2-yl)-3-methylbenzonitrile]
Androgen receptor (AR)
  EC50: 1.2 nM
[1]
  luteinizing hormone (LH) levels: concurrent decrease of LH levels
  plasma drug concentration: dose dependent increase
  weights of levator ani compared to prostate: dose dependent selective increase in weights of levator ani compared to prostate

## CO[C@@H]1C(c2ccc(C#N)c(Cl)c2C)=NN2CC[C@H](O)[C@@H]12 [Example 1, 2-chloro-4-((3S,3aS,4S)-4-hydroxy-3-methoxy-3a,4,5,6-tetrahydro-3H-pyrrolo[1,2-b]pyrazol-2-yl)-3-methylbenzonitrile]
Androgen receptor (AR); mouse myoblastic C2C12 cells transfected with AR-FL and 2XIDR17-luciferase, read-out: Biological activity (C2C12 cell) EC50
  EC50: 0.5 nM
[1]
  luteinizing hormone (LH) levels: concurrent decrease of LH levels
  plasma drug concentration: dose dependent increase
  weights of levator ani compared to prostate: dose dependent selective increase in weights of levator ani compared to prostate

## Cc1c(C2=NN3CC[C@H](O)[C@H]3[C@@H]2OCCF)ccc(C#N)c1Cl [Example 16, 2-chloro-4-((3S,3aS,4S)-3-(2-fluoroethoxy)-4-hydroxy-3a,4,5,6-tetrahydro-3H-pyrrolo[1,2-b]pyrazol-2-yl)-3-methylbenzonitrile]
Androgen receptor (AR)
  EC50: 2 nM

## COCCO[C@@H]1C(c2ccc(C#N)c(Cl)c2C)=NN2C[C@H](O)C[C@@H]12 [Example 26]
Androgen receptor (AR)
  EC50: 158 nM

## Cc1c(C2=NN3C[C@H](O)C[C@H]3[C@@H]2O)ccc(C#N)c1Cl [Example 10, 2-chloro-4-((3S,3aS,5R)-3,5-dihydroxy-3a,4,5,6-tetrahydro-3H-pyrrolo[1,2-b]pyrazol-2-yl)-3-methylbenzonitrile]
Androgen receptor (AR)
  % Biological activity (C2C12 cell) 100 nM: 4%
  % Biological activity (C2C12 cell) 5 μM: 2%

## COCCO[C@@H]1C(c2ccc(C#N)c(Cl)c2C)=NN2C[C@@H](F)C[C@@H]12 [Example 27]
Androgen receptor (AR)
  EC50: 65.8 nM

## COCCCO[C@@H]1C(c2ccc(C#N)c(Cl)c2C)=NN2CC(=O)C[C@@H]12 [Example 30]
Androgen receptor (AR)
  EC50: 56 nM

## Cc1c(C2=NN3CC[C@@H](O)[C@H]3[C@@H]2O)ccc(C#N)c1Cl [Example 4, 2-chloro-4-((3S,3aS,4R)-3,4-dihydroxy-3a,4,5,6-tetrahydro-3H-pyrrolo[1,2-b]pyrazol-2-yl)-3-methylbenzonitrile]
Androgen receptor (AR)
  % Biological activity (C2C12 cell) 100 nM: 5%
  % Biological activity (C2C12 cell) 5 μM: 32%

## CO[C@@H]1C(c2ccc(C#N)c(Cl)c2C)=NN2C[C@H](O)C[C@@H]12 [Example 8, 2-chloro-4-((3S,3aS,5R)-5-hydroxy-3-methoxy-3a,4,5,6-tetrahydro-3H-pyrrolo[1,2-b]pyrazol-2-yl)-3-methylbenzonitrile]
Androgen receptor (AR)
  EC50: 6.7 nM
